Measurements published in publication PMC2713098 (Nuclear medicine and biology, 2009).
“Also recorded” adds a separate entry of the source. Read-outs that look alike come from different tables or passages of the source.

Legend:
[1] = In vivo biodistribution study in rats; parameters: species or system rat; conditions: for uptake in testes over time: i.v., 15, 60 and 120 min post-injection
[2] = target: T1, human A3AR (Homo sapiens, UniProt P0DMS8); conditions: for potency at human versus rat A3AR: Figures 1A and 1B; for Ki: read-out: Human Ki, CHO cell membranes, radioligand [76Br]4 0.5 nM, 25°C 60 min
T1 sequence (P0DMS8 1-318): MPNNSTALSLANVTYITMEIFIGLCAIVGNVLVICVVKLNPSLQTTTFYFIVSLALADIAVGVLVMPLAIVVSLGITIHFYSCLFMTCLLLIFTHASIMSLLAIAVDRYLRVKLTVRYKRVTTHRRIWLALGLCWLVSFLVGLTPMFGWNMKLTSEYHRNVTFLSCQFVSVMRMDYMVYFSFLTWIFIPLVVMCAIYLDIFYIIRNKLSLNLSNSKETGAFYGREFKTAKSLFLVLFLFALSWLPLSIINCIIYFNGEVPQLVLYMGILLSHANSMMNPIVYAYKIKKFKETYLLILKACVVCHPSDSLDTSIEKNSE

[3] = target: T1, human A3AR; conditions: cited from earlier work
[4] = target: T2, rat A3AR (Rattus norvegicus, UniProt P28647); assay: Competitive radioligand binding at rat A3AR in CHO cell membranes using [76Br]4; conditions: for Ki: read-out: Rat Ki, CHO cell membranes, radioligand [76Br]4 0.5 nM, 25°C 60 min; for potency in binding to the rat A3AR: Figures 1A and 1B, [76Br]4 or [76Br]6 as radioligand
T2 sequence (P28647 1-320): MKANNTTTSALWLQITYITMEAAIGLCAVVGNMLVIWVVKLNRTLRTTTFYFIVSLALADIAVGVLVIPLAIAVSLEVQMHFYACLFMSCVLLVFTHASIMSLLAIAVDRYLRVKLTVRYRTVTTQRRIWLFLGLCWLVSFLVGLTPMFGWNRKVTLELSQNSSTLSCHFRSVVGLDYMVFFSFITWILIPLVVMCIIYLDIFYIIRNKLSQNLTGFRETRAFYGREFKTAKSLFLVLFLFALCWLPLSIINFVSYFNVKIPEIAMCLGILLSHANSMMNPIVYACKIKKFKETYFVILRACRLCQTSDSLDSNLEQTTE

[5] = target: T1, human A3AR; conditions: read-out: Human Ki; CHO cell membranes, radioligand [76Br]MRS5147 6
[6] = target: T2, rat A3AR
[7] = In vitro metabolism in human hepatocytes; format: in vitro ADME; conditions: 20 μg/mL, 37°C, up to 4 hours; only very small amounts of metabolites by LC/MS
[8] = tested on: A3AR; assay: In vitro tissue binding; conditions: rat whole brain and testes slices, with and without inhibitors, preliminary
[9] = In vitro metabolism in rat hepatocytes; format: in vitro ADME; conditions: 20 μg/mL, 37°C, up to 4 hours; only very small amounts of metabolites by LC/MS
[10] = read-out: Rat Ki, CHO cell membranes, radioligand [76Br]MRS5147 6

Ki [4] [nM] | SMILES | uptake in testes over time ([1]; rat) | potency at human versus rat A3AR [2] | Ki [2] [nM] | Ki [6, 10] [nM] | potency in binding to the rat A3AR [4] | further results
– | O[C@@H]1[C@H](O)[C@@H]2C[C@@H]2[C@H]1n1cnc2c(NCc3cccc([76Br])c3)nc(Cl)nc21 [[^76Br]6, [^76Br](1R,2R,3S,4R,5S)-4-(6-(3-bromobenzylamino)-2-chloro-9H-purin-9-yl)bicyclo[3.1.0]hexane-2,3-diol] | continued to increase with time; also recorded: statistically increased relative to the 15 min time point | – | – | – | – | tissue uptake relative to agonist [76Br]4 ([1]; rat, i.v., %ID/g): an order of magnitude lower
0.9 ± 0.07 | CNC(=O)[C@]12C[C@@H]1[C@@H](n1cnc3c(NCc4cccc(Br)c4)nc(Cl)nc31)[C@H](O)[C@@H]2O [compound 4, (1′R,2′R,3′S,4′R,5′S)-4-{2-chloro-6-[(3-bromophenylmethyl)amino]purin-9-yl}-1-(methylaminocarbonyl)bicyclo[3.1.0]hexane-2,3-diol] | – | equally potent | 0.63 ± 0.05 | – | – | selectivity in comparison to other AR subtypes [3]: high selectivity; Ki ([3]; read-out: Ki value at the human A3AR, shown previously, listed as 4 (MRS3581)): 0.38 nM
– | O[C@@H]1[C@H](O)[C@@H]2C[C@@H]2[C@H]1n1cnc2c(NCc3cccc(Br)c3)nc(Cl)nc21 [compound 6, (1R,2R,3S,4R,5S)-4-(6-(3-bromobenzylamino)-2-chloro-9H-purin-9-yl)bicyclo[3.1.0]hexane-2,3-diol] | increasing uptake in testes | – | – | – | – | Ki [6]: 5.2 ± 1.8 nM
> 10000 | O=C(Cc1ccccc1)Nc1nc2ccc(Cl)cc2c2nc(-c3ccco3)nn12 [MRS1220, N-[9-chloro-2-(2-furanyl)[1,2, 4]triazolo[1,5-c]quinazolin-5-yl]benzeneacetamide] | – | – | – | > 10000 | ineffective | –
– | CNC(=O)[C@]12C[C@@H]1[C@@H](n1cnc3c(NCc4cccc([76Br])c4)nc(Cl)nc31)[C@H](O)[C@@H]2O [[^76Br]4, [^76Br](1′R,2′R,3′S,4′R,5′S)-4-{2-chloro-6-[(3-bromophenylmethyl)amino]purin-9-yl}-1-(methylaminocarbonyl)bicyclo[3.1.0]hexane-2,3-diol] | – | – | – | – | – | organs of primary uptake ([1]; i.v., Sprague-Dawley rats, 15-120 min): liver and kidneys; metabolic stability in human hepatocytes [7]: very stable; specific uptake of radioligand in tissue slices [8]: fail to show any specific uptake; metabolic stability in rat hepatocytes [9]: very stable

SMILES | Ki [4] [nM] | uptake in testes over time ([1]; rat) | potency at human versus rat A3AR [2] | Ki [2] [nM] | Ki [6, 10] [nM] | potency in binding to the rat A3AR [4] | further results
CCCOC(=O)c1c(-c2ccccc2)nc(CC)c(C(=O)SCC)c1CCC [MRS1523, 3-propyl-6-ethyl-5-[(ethylthio)carbonyl]-2-phenyl-4-propyl-3-pyridine carboxylate, reference compound] | 939 ± 98 | – | more potent at the human A3AR | 125 ± 13 | 2830 ± 520 | moderately potent | Ki [5]: 120 ± 17 nM
